The source made the active and inactive calls. No cut-off for these calls is given here.
Experiments:
[1] = biological target: T1, Protein mono-ADP-ribosyltransferase PARP3 (Homo sapiens) (UniProt Q9Y6F1); experiment: Inhibition of human PARP3 auto-ADP ribosylation by Western blotting
T1 sequence (whole entry): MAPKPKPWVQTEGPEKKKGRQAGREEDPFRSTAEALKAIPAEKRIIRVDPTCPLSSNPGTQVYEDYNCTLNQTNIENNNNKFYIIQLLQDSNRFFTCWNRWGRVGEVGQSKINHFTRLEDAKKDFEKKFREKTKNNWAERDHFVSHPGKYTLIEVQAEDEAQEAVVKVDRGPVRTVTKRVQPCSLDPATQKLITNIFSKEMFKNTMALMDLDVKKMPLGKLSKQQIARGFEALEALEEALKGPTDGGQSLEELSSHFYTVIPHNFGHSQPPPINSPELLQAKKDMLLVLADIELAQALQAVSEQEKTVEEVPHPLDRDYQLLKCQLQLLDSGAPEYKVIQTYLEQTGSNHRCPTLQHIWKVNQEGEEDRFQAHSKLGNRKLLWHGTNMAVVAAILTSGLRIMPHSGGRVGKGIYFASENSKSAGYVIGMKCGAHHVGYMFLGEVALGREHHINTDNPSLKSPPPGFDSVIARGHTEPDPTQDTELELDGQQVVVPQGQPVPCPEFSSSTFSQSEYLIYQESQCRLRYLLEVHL

[2] = biological target: T2, Poly [ADP-ribose] polymerase 1 (Homo sapiens, UniProt P09874)
T2 sequence (P09874 whole entry): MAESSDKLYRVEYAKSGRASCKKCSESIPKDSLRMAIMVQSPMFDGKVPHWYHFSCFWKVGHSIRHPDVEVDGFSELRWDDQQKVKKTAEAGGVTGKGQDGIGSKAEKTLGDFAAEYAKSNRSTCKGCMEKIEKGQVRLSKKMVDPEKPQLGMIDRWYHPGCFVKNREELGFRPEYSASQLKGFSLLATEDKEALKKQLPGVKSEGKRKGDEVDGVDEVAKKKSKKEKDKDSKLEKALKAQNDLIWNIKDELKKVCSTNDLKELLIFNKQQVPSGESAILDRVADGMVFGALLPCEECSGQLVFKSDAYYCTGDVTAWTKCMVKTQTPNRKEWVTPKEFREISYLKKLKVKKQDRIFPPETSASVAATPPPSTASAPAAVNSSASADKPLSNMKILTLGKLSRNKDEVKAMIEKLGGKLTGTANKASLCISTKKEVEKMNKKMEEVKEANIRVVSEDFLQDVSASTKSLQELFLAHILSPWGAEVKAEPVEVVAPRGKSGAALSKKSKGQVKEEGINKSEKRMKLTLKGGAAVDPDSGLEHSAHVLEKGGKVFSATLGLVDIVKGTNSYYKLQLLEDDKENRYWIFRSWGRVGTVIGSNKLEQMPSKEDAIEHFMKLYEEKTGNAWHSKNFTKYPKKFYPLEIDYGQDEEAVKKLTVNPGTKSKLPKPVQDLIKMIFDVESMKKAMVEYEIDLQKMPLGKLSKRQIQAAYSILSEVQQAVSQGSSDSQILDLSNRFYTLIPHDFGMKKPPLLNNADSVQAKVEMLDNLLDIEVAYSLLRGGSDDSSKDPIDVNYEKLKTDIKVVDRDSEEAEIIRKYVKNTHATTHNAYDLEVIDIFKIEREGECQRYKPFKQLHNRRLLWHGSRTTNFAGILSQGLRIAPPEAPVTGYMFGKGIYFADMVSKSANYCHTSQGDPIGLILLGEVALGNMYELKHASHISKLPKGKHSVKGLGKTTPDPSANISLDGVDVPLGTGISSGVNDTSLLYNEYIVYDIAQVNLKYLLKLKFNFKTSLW
Description: Binding affinity to human PARP1 by isothermal titration colorimetry

[3] = biological target: T2, Poly [ADP-ribose] polymerase 1; experiment: Inhibition of human PARP1
[4] = biological target: T3, Protein mono-ADP-ribosyltransferase PARP3 (Homo sapiens, UniProt Q9Y6F1); experiment: Binding affinity to human PARP3 PARP domain by isothermal titration […]
T3 sequence (Q9Y6F1 whole entry): T1 sequence (whole entry)

SMILES	Activity [1]	Kd [2]	IC50 [3]	Kd [4]
O=C(c1cc(Cc2n[nH]c(=O)c3ccccc23)ccc1F)N1CCCNCC1	Active	19 nM	3.4 nM	–
Nc1cccc(C(=O)O)c1 [3-AMINOBENZOIC ACID]	–	–	–	> 2000 nM
